Assays:
[1] = biological target: T1, Gamma-aminobutyric acid receptor subunit alpha-6/beta-3/gamma-2 (Rattus norvegicus) (UniProt P18508+P30191+P63079); assay: Positive allosteric modulation of rat recombinant GABAA alpha6beta3gamma2 receptor expressed in Xenopus laevis oocytes assessed as potentiation of GABA-induced response under less potent current at -80 mV holding potential at 30 uM in presence of GABA EC1 to 1.5 by two-electrode voltage-clamp assay; format: cell-based; conditions: Oocyte, filed as positive allosteric modulator
[2] = biological target: T1, Gamma-aminobutyric acid receptor subunit alpha-6/beta-3/gamma-2 (Rattus norvegicus); assay: Positive allosteric modulation of rat recombinant GABAA alpha6beta3alpha6-gamma2beta3 receptor expressed in Xenopus laevis oocytes assessed as maximal efficacy at -80 mV holding potential at 100 nM in presence of GABA EC1 to 1.5 by two-electrode voltage-clamp assay; format: cell-based; conditions: Oocyte, filed as positive allosteric modulator
[3] = biological target: T1, Gamma-aminobutyric acid receptor subunit alpha-6/beta-3/gamma-2 (Rattus norvegicus); assay: Positive allosteric modulation of rat recombinant GABAA alpha6beta3alpha6-gamma2beta3 receptor expressed in Xenopus laevis oocytes assessed as maximal efficacy at -80 mV holding potential at 30 nM in presence of GABA EC1 to 1.5 by two-electrode voltage-clamp assay; format: cell-based; conditions: Oocyte
[4] = biological target: T2, Gamma-aminobutyric acid receptor subunit alpha-6/beta-3/gamma-2 (Rattus norvegicus, UniProt P18508+P30191+P63079); assay: Positive allosteric modulation of rat recombinant GABAA alpha6beta3alpha6-gamma2beta3 receptor expressed in Xenopus laevis oocytes assessed as increase in GABA-induced current amplitude at -80 mV holding potential under more potent phase in presence of GABA EC1 to 1.5 by two-electrode voltage-clamp assay; format: cell-based, Oocyte
T2 sequence (P18508 whole entry): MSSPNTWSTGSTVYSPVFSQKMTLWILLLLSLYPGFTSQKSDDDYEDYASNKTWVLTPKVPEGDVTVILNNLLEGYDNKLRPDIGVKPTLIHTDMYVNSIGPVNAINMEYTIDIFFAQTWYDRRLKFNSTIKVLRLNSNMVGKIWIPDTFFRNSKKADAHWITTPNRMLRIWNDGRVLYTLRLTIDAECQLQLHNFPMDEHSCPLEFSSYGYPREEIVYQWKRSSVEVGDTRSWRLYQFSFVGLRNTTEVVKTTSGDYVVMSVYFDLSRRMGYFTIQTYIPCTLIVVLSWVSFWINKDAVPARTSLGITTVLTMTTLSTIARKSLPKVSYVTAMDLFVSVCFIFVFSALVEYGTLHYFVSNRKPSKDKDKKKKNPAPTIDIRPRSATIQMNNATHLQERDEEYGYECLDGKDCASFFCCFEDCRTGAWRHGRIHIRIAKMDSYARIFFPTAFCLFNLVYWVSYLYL
T2 sequence (P30191 whole entry): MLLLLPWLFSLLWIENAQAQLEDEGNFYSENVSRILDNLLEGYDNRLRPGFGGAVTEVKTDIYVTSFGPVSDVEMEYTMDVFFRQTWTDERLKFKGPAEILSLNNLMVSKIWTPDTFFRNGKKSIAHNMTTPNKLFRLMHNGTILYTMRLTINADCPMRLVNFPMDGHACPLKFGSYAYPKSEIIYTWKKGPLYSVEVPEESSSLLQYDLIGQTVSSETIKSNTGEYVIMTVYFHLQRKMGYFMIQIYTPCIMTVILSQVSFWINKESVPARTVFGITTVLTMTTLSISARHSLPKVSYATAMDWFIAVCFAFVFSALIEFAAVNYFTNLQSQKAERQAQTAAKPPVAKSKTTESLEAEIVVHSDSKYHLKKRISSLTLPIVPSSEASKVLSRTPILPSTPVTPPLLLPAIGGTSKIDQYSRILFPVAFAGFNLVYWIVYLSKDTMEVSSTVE
T2 sequence (P63079 whole entry): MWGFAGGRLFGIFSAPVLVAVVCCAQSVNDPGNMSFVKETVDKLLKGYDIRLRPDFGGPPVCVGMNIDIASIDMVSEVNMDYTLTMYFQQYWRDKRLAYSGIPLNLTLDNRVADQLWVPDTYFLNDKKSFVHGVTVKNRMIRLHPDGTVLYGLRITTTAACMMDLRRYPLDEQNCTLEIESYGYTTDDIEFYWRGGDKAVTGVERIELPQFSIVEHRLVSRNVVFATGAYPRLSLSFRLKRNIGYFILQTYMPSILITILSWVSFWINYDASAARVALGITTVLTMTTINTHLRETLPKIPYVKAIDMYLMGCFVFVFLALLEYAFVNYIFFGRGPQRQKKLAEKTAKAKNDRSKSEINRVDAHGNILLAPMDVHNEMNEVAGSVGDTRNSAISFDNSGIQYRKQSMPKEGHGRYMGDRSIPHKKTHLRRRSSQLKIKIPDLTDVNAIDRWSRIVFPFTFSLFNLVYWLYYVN

[5] = biological target: T1, Gamma-aminobutyric acid receptor subunit alpha-6/beta-3/gamma-2 (Rattus norvegicus); assay: Positive allosteric modulation of rat recombinant GABAA alpha6beta3alpha6-gamma2beta3 receptor expressed in Xenopus laevis oocytes assessed as maximal current under less potent phase in presence of GABA EC1 to 1.5 by two-electrode voltage-clamp assay relative to control; format: cell-based; conditions: Oocyte, filed as positive allosteric modulator
[6] = biological target: T1, Gamma-aminobutyric acid receptor subunit alpha-6/beta-3/gamma-2 (Rattus norvegicus); assay: Positive allosteric modulation of rat recombinant GABAA alpha6beta3gamma2 receptor expressed in Xenopus laevis oocytes assessed as potentiation of GABA-induced response under more potent current at -80 mV holding potential at 30 uM in presence of GABA EC1 to 1.5 by two-electrode voltage-clamp assay; format: cell-based; conditions: Oocyte, filed as positive allosteric modulator
[7] = biological target: T3, Gamma-aminobutyric acid receptor subunit alpha-1/alpha-6/beta-3/gamma-2 (Rattus norvegicus) (UniProt P18508+P30191+P62813+P63079); assay: Positive allosteric modulation of rat recombinant GABAA alpha6beta3alpha1-gamma2beta3 receptor expressed in Xenopus laevis oocytes assessed as maximal efficacy at -80 mV holding potential at 30 uM in presence of GABA EC1 to 1.5 by two-electrode voltage-clamp assay; format: cell-based; conditions: Oocyte, filed as positive allosteric modulator
[8] = biological target: T1, Gamma-aminobutyric acid receptor subunit alpha-6/beta-3/gamma-2 (Rattus norvegicus); assay: Positive allosteric modulation of rat recombinant GABAA alpha6beta3alpha6-gamma2beta3 receptor expressed in Xenopus laevis oocytes assessed as maximal efficacy at -80 mV holding potential at 300 nM in presence of GABA EC1 to 1.5 by two-electrode voltage-clamp assay; format: cell-based; conditions: Oocyte, filed as positive allosteric modulator
[9] = biological target: T1, Gamma-aminobutyric acid receptor subunit alpha-6/beta-3/gamma-2 (Rattus norvegicus); assay: Positive allosteric modulation of rat recombinant GABAA alpha6beta3alpha6-gamma2beta3 receptor expressed in Xenopus laevis oocytes assessed as maximal efficacy at -80 mV holding potential at 1 uM in presence of GABA EC1 to 1.5 by two-electrode voltage-clamp assay; format: cell-based; conditions: Oocyte, filed as positive allosteric modulator
[10] = biological target: T2, Gamma-aminobutyric acid receptor subunit alpha-6/beta-3/gamma-2; assay: Positive allosteric modulation of rat recombinant GABAA alpha6beta3alpha6-gamma2beta3 receptor expressed in Xenopus laevis oocytes assessed as increase in GABA-induced current amplitude at -80 mV holding potential under less potent phase in presence of GABA EC1 to 1.5 by two-electrode voltage-clamp assay; format: cell-based, Oocyte
[11] = biological target: T1, Gamma-aminobutyric acid receptor subunit alpha-6/beta-3/gamma-2 (Rattus norvegicus); assay: Positive allosteric modulation of rat recombinant GABAA alpha6beta3alpha6-gamma2beta3 receptor expressed in Xenopus laevis oocytes assessed as maximal efficacy at -80 mV holding potential at 3 uM in presence of GABA EC1 to 1.5 by two-electrode voltage-clamp assay; format: cell-based; conditions: Oocyte, filed as positive allosteric modulator
[12] = biological target: T1, Gamma-aminobutyric acid receptor subunit alpha-6/beta-3/gamma-2 (Rattus norvegicus); assay: Positive allosteric modulation of rat recombinant GABAA alpha6beta3gamma2 receptor expressed in Xenopus laevis oocytes assessed as potentiation of GABA-induced response under more potent current at -80 mV holding potential at 100 nM in presence of GABA EC1 to 1.5 by two-electrode voltage-clamp assay; format: cell-based; conditions: Oocyte, filed as positive allosteric modulator
[13] = biological target: T1, Gamma-aminobutyric acid receptor subunit alpha-6/beta-3/gamma-2 (Rattus norvegicus); assay: Positive allosteric modulation of rat recombinant GABAA alpha6beta3alpha6-gamma2beta3 receptor expressed in Xenopus laevis oocytes assessed as maximal efficacy at -80 mV holding potential at 10 uM in presence of GABA EC1 to 1.5 by two-electrode voltage-clamp assay; format: cell-based; conditions: Oocyte, filed as positive allosteric modulator
[14] = biological target: T3, Gamma-aminobutyric acid receptor subunit alpha-1/alpha-6/beta-3/gamma-2 (Rattus norvegicus); assay: Positive allosteric modulation of rat recombinant GABAA alpha6beta3alpha1-gamma2beta3 receptor expressed in Xenopus laevis oocytes assessed as maximal efficacy at -80 mV holding potential at 30 nM in presence of GABA EC1 to 1.5 by two-electrode voltage-clamp assay; format: cell-based; conditions: Oocyte
[15] = biological target: T4, Gamma-aminobutyric acid receptor subunit alpha-1/beta-3/gamma-2 (Rattus norvegicus) (UniProt P18508+P62813+P63079); assay: Positive allosteric modulation of rat recombinant GABAA alpha1beta3alpha1-gamma2beta3 receptor expressed in Xenopus laevis oocytes assessed as maximal efficacy at -80 mV holding potential at 30 uM in presence of GABA EC1 to 1.5 by two-electrode voltage-clamp assay; format: cell-based; conditions: Oocyte
[16] = biological target: T1, Gamma-aminobutyric acid receptor subunit alpha-6/beta-3/gamma-2 (Rattus norvegicus); assay: Positive allosteric modulation of rat recombinant GABAA alpha6beta3alpha6-gamma2beta3 receptor expressed in Xenopus laevis oocytes assessed as maximal efficacy at -80 mV holding potential at 3 nM in presence of GABA EC1 to 1.5 by two-electrode voltage-clamp assay; format: cell-based; conditions: Oocyte
[17] = biological target: T1, Gamma-aminobutyric acid receptor subunit alpha-6/beta-3/gamma-2 (Rattus norvegicus); assay: Positive allosteric modulation of rat recombinant GABAA alpha6beta3alpha6-gamma2beta3 receptor expressed in Xenopus laevis oocytes assessed as maximal current at -80 mV holding potential under more potent phase in presence of GABA EC1 to 1.5 by two-electrode voltage-clamp assay relative to control; format: cell-based; conditions: Oocyte, filed as positive allosteric modulator
[18] = biological target: T4, Gamma-aminobutyric acid receptor subunit alpha-1/beta-3/gamma-2 (Rattus norvegicus); assay: Positive allosteric modulation of rat recombinant GABAA alpha1beta3alpha1-gamma2beta3 receptor expressed in Xenopus laevis oocytes assessed as maximal efficacy at -80 mV holding potential at 300 nM in presence of GABA EC1 to 1.5 by two-electrode voltage-clamp assay; format: cell-based; conditions: Oocyte
[19] = biological target: T4, Gamma-aminobutyric acid receptor subunit alpha-1/beta-3/gamma-2 (Rattus norvegicus); assay: Positive allosteric modulation of rat recombinant GABAA alpha1beta3alpha1-gamma2beta3 receptor expressed in Xenopus laevis oocytes assessed as maximal efficacy at -80 mV holding potential at 100 nM in presence of GABA EC1 to 1.5 by two-electrode voltage-clamp assay; format: cell-based; conditions: Oocyte
[20] = biological target: T3, Gamma-aminobutyric acid receptor subunit alpha-1/alpha-6/beta-3/gamma-2 (Rattus norvegicus); assay: Positive allosteric modulation of rat recombinant GABAA alpha6beta3alpha1-gamma2beta3 receptor expressed in Xenopus laevis oocytes assessed as maximal efficacy at -80 mV holding potential at 300 nM in presence of GABA EC1 to 1.5 by two-electrode voltage-clamp assay; format: cell-based; conditions: Oocyte
[21] = biological target: T1, Gamma-aminobutyric acid receptor subunit alpha-6/beta-3/gamma-2 (Rattus norvegicus); assay: Positive allosteric modulation of rat recombinant GABAA alpha6beta3alpha6-gamma2beta3 receptor expressed in Xenopus laevis oocytes assessed as maximal efficacy at -80 mV holding potential at 30 uM in presence of GABA EC1 to 1.5 by two-electrode voltage-clamp assay; format: cell-based; conditions: Oocyte, filed as positive allosteric modulator
[22] = biological target: T4, Gamma-aminobutyric acid receptor subunit alpha-1/beta-3/gamma-2 (Rattus norvegicus); assay: Positive allosteric modulation of rat recombinant GABAA alpha1beta3alpha1-gamma2beta3 receptor expressed in Xenopus laevis oocytes assessed as maximal efficacy at -80 mV holding potential at 30 nM in presence of GABA EC1 to 1.5 by two-electrode voltage-clamp assay; format: cell-based; conditions: Oocyte
[23] = biological target: T1, Gamma-aminobutyric acid receptor subunit alpha-6/beta-3/gamma-2 (Rattus norvegicus); assay: Positive allosteric modulation of rat recombinant GABAA alpha6beta3alpha6-gamma2beta3 receptor expressed in Xenopus laevis oocytes assessed as maximal efficacy at -80 mV holding potential at 1 nM in presence of GABA EC1 to 1.5 by two-electrode voltage-clamp assay; format: cell-based; conditions: Oocyte
[24] = biological target: T3, Gamma-aminobutyric acid receptor subunit alpha-1/alpha-6/beta-3/gamma-2 (Rattus norvegicus); assay: Positive allosteric modulation of rat recombinant GABAA alpha6beta3alpha1-gamma2beta3 receptor expressed in Xenopus laevis oocytes assessed as maximal efficacy at -80 mV holding potential at 100 nM in presence of GABA EC1 to 1.5 by two-electrode voltage-clamp assay; format: cell-based; conditions: Oocyte
[25] = biological target: T1, Gamma-aminobutyric acid receptor subunit alpha-6/beta-3/gamma-2 (Rattus norvegicus); assay: Positive allosteric modulation of rat recombinant GABAA alpha6beta3alpha6-gamma2beta3 receptor expressed in Xenopus laevis oocytes assessed as maximal efficacy at -80 mV holding potential at 10 nM in presence of GABA EC1 to 1.5 by two-electrode voltage-clamp assay; format: cell-based; conditions: Oocyte

COc1ccc(-n2nc3c4ccc(C(C)=O)cc4[nH]cc-3c2=O)cc1
Activity [1]: 80% | Efficacy [2]: 52% | Efficacy [3]: 31% | EC50 [4]: 0.05 µM | %max [5]: 2210% | Activity [6]: 280% | Efficacy [7]: 338% | Efficacy [8]: 67% | Efficacy [9]: 101% | EC50 [10]: 735 µM | Efficacy [11]: 127% | Activity [12]: 62% | Efficacy [13]: 205% | Efficacy [14]: 3% | Efficacy [15]: 10% | Efficacy [16]: 13% | %max [17]: 82% | Efficacy [18]: 1% | Efficacy [19]: 1% | Efficacy [20]: 11% | Efficacy [21]: 426% | Efficacy [22]: 1% | Efficacy [23]: 9% | Efficacy [24]: 3% | Efficacy [25]: 27%
